Data from patent publication US20220054532A1, “VETERINARY COMPOSITIONS AND METHODS OF USE THEREFOR” (priority 2019, published 2022).

Tests used:
Type in all cases: in vivo
[1] = tested on: dogs suffering from osteoarthritis; test: Example 1: pain relief and side effects in canine osteoarthritis; details: dogs with osteoarthritis, 4 weeks of administration, group average
Text: This example examines the ability of various compositions to minimize pain and examines the level of adverse side effects of each composition.
At the outset of the study, participants receive a full physical examination, including weight measurement, thigh circumference, and CBC/blood chemistries. Because osteoarthritis is not only a disease of pain, but one characterized by behavioral, appetite, anxiety/aggression, family socialization, and sleep aberrations, the pet's owners are familiarized with the pain scale (canine orthopedic index) and additional behavioral assessment log.
The patient group is twenty-four dogs suffering from osteoarthritis, broken into eight groups of three dogs. The first group receives a control composition with no active agent; the second group receives a composition comprising HA as the sole active agent; the third group receives a composition comprising HMW HA as the sole active agent; the fourth group receives a composition comprising CBD as the sole active agent; the fifth group receives a composition comprising HA and CBD as the active agents; the sixth group receives a composition comprising HMW HA and CBD as the active agents; the seventh group receives a composition comprising Rimadyl as the active agent; and the eighth group receives a composition comprising Meloxicam as the active agent.
Each composition is administered for a period of four (4) weeks. The owner completes the electronic log questionnaire each week. At the end of the 4-week study, participants have another full physical examination, including weight measurement, thigh circumference, and CBC/blood chemistries, with an exit interview of the owners to gain final impressions.
Each group is evaluated for pain scores and the scores averaged. The following scores are observed and the results depicted in FIG. 1: […]

[2] = tested on: cats suffering from GI-specific inflammation; test: Example 3: GI-specific inflammation, owner-rated symptom reduction (feline); details: symptom reduction score 0 (no reduction) to 4 (resolution of symptoms); for Final Score: after 28 days BID
Text: This example examines the ability of embodiments of the invention versus Pepcid® to treat unwanted GI-specific inflammation characterized by gastritis, reflux, vomiting, diarrhea, and inappetence.
The first patient group is twenty dogs suffering from GI-specific inflammation. The second patient group is twenty cats suffering from GI-specific inflammation. Each patient group is broken into five groups of four animals. The first groups receive Pepcid® as the sole active agent; the second groups receive a composition comprising HMW HA as the sole active agent; the third groups receive a composition comprising CBD as the sole active agent; the fourth groups receive a composition comprising HMW HA and CBD as the active agents; and the fifth groups receive a composition comprising HMW HA, CBD, and glutathione as the active agents.
Each composition is administered for a period of twenty-eight (28) days, BID. The owner observes potential reduction of symptoms at the end of treatment and rates the reduction as no reduction (score of 0), mild reduction (score of 1), moderate reduction (score of 2), significant reduction (score of 3), or resolution of symptoms (score of 4).
The following feline scores are observed and the results depicted in FIG. 3b: […]

[3] = tested on: dogs suffering from joint inflammation; test: Example 12: joint inflammation, thermal imaging (canine, CBD Complex); details: over the inflamed joint, 60 days BID
Text: This example examines the ability of embodiments of the invention versus Cosequin® to treat joint inflammation.
The first patient group is twenty dogs suffering from joint inflammation. The second patient group is twenty cats suffering from joint inflammation. The third patient group is twenty horses suffering from joint inflammation. Each patient group is broken into five groups of four animals. The first groups receive Cosequin® as the sole active agent; the second groups receive a composition comprising HMW HA as the sole active agent; the third groups receive a composition comprising CBD as the sole active agent; the fourth groups receive a composition comprising HMW HA and CBD Complex as the active agents; and the fifth groups receive a composition comprising HMW HA, CBD Complex, Boswellia, and superoxide dismutase (“SOD”) as the active agents.
Each composition is administered for a period of sixty (60) days, BID. Efficacy is determined by a decrease in body temperature over the inflamed joint, as measured by thermal imaging (e.g., via Digatherm device). Thermal imaging is performed on days 0 (“Initial Score”), 15, 30, 45, and 60 (“Final Score”) of treatment.
The following canine scores are observed and the results depicted in FIG. 12a: […]

[4] = tested on: dogs suffering from seizures; test: Example 14: seizures in dogs (CBD Complex); details: seizure scale 1 (seizure-free) to 10 (daily or multiple seizures); for Initial Score: day 0; for Final Score: day 60, BID
Text: This example examines the ability of embodiments of the invention versus phenobarbital to treat seizures.
(§1) The patient group is twenty-four dogs suffering from seizures as diagnosed by their referring veterinarian. The patient group is broken into six groups of four animals. The first group receives phenobarbital as the sole active agent; the second group receives a composition comprising phenobarbital and Keppra®; the third group receives a composition comprising HMW HA as the sole active agent; the fourth group receives a composition comprising CBD as the sole active agent; the fifth group receives a composition comprising HMW HA and CBD Complex as the active agents; and the sixth group receives a composition comprising HMW HA, CBD Complex, valerian root, and scutillaria as the active agents.
Each composition is administered for a period of sixty (60) days, BID. Each dog is evaluated on days 0 (“Initial Score”), 15, 30, 45, and 60 (“Final Score”) of treatment. The results are averaged and characterized on a scale of 1 (seizure-free) to 10 (daily seizures or multiple seizures during the event).
The following canine scores are observed and the results depicted in FIG. 14: […]

[5] = tested on: dogs with a history of severe, chronic skin issues, atopy, pruritis, yeast overgrowth, and/or infection; test: Example 16: skin conditions (itch score) and side effects in dogs (CBD Complex); details: for Average Side Effect Score: dogs with skin conditions, 60 days BID; for Initial Itch Score / Final Itch Score: itch scale 0 (no itching) to 10 (extremely severe); for Initial Itch Score: day 0; for Final Itch Score: day 60, BID
Text: This example examines the ability of embodiments of the invention versus prednisone to treat skin conditions.
as §1, with “with a history of severe, chronic skin issues, atopy, pruritis, yeast overgrowth, and/or infection,” for “suffering from seizures”, “prednisone” for “phenobarbital”, “HMW HA as the active agents;” for “Keppra®;”, “quercetin,” for “valerian root,”, “nettles” for “scutillaria”
Each composition is administered for a period of sixty (60) days, BID. Each dog is evaluated on days 0 (“Initial Score”), 20, 40, and 60 (“Final Score”) of treatment. The results are averaged and characterized on a scale of 0 (no itching—normal dog), 2 (very mild itching—only occasional episodes), 4 (mild itching), 6 (moderate itching—regular episodes), 8 (severe itching—prolonged episodes), to 10 (extremely severe itching—almost continuous).

| Compound | Average Pain Score [1] | Average Side Effect Score [1] | Average Pain Score ([1]; listed as CBD alone) | Average Side Effect Score ([1]; listed as CBD alone) | Final Score [2] | Initial Score [2] | Reduction in Temperature (° F.) [3] | Initial Score [4] | Final Score [4] | Average Side Effect Score [5] | Initial Itch Score [5] | Final Itch Score [5] | Average Pain Score ([1]; listed as HMW HA alone) | Average Side Effect Score ([1]; listed as HMW HA alone) |
| --- | --- | --- | --- | --- | --- | --- | --- | --- | --- | --- | --- | --- | --- | --- |
| C=C(C)[C@@H]1CCC(C)=C[C@H]1c1c(O)cc(CCCCC)cc1O [CBD Alone, 2-[(1R,6R)-3-methyl-6-prop-1-en-2-ylcyclohex-2-en-1-yl]-5-pentylbenzene-1,3-diol] | 19 | 0.5 | not especially effective in reducing pain | even lower degree of adverse side effects | 2 | 0 | 1.7 ° F. | 9 | 4 | .5 | 9 | 5 |  |  |
| hyaluronic acid [HMW HA Alone] | 16 | 4 |  |  | 3 | 0 | 1.9 ° F. | 9 | 5 | 4 | 9 | 7 | only slightly reduce pain | low degree of adverse side effects |
